{"source": "patent US8920851B2", "about": "“Treatment of neurodegenerative diseases” (Velacor Therapeutics Pty Ltd, priority 2006, dated 2014)", "key": {"PHF Tau": {"system": "PHF Tau", "conditions": "Balb/C Nu Nu male mice, single subcutaneous injection 300 μg per 200 μl PBS, 2 and 6 hours", "protocol": "Lysates preparation and Immunoblotting: Cells were washed twice in cold PBS and were lysed in 150 μl of cold RIPA buffer (containing 10% glycerol, 20 mM Tris, 137 mM NaCl, 0.1% SDS, 0.05% IGEPAL, 1% Triton X-100, 2 mM EDTA, 10% NaV, 2% NaF and 4× protease inhibitor), similarly, brain tissues were homogenised in dry ice using mortar and pestle, and lysed in 150 μl RIPA buffer. Samples were incubated on ice for 30 minutes, followed by centrifugation at 13000 rpm/ 10 minutes/ 4° C. Supernantant was collected and protein estimation was calculated for each sample by using BCA reagent (Sigma). Equal amounts of protein were loaded into each lane of a 10% SDS-polyacrylamide gel. The proteins were transferred onto PVDF (Millipore) membranes and were blocked with 5% skim milk blotto for 2 hours. After blocking the membrane, primary antibodies: either anti-human PHF-Tau (AT100 at 1:200, AT180 at 1:1000, and AT270 at 1:2500) or anti-human Tau (HT-7 at 1:1000) were incubated overnight at 4° C. in 5% skim milk blotto. Prior to secondary antibody incubation, membranes were rinsed 3× followed by 3×5 minutes washed in Tris-Buffered Saline with 0.01% Tween at room temperature. […] Membranes were washed as described above and were detected by using Amersham ECL western blotting detection reagent (Amersham Bioscience, Buckinghamshire, UK). […]"}, "[1]": {"system": "PC3 prostate carcinoma cells", "experiment": "Intracellular redox state assay (DCFDA, flow cytometry)", "conditions": "1 h, sodium selenate 500 μM, NAC 1 mM", "procedure": "1×10^6 PC3 prostate carcinoma cells were plated in 60 mm dishes, allowed to attach for 8 h, and serum starved overnight. Cells were incubated with DCFDA 5 μM for 15 min prior to treatment.\nThe proportion of fluorescent cells was then determined by flow cytometry.\nIntracellular redox state was determined using 2′,7′-dichlorodihydrofluorescein diacetate (DCFDA). […] Cells were equilibrated with 5 μM of DCFDA for 15 min prior to various treatments. Adherent cells were then harvested, washed twice with PBS and the proportion of fluorescent cells determined immediately by flow cytometry."}, "PP2A": {"target": "T1, PP2A (Homo sapiens, UniProt P67775)", "T1 construct": "the phosphatase activity of the general pool of intracellular PP2A; endogenous in cells; host or cells: PC3 prostate carcinoma cells", "T1 sequence (P67775 whole entry)": "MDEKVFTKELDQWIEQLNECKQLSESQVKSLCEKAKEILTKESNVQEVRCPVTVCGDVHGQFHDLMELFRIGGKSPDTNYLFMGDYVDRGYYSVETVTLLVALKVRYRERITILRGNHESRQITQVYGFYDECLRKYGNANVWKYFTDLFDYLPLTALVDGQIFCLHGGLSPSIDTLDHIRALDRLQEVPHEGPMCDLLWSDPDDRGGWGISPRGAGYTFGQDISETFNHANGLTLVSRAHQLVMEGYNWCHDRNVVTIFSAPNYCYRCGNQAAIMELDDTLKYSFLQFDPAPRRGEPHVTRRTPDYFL", "T1 sequence (P30153 2-589 partner limits assumed)": "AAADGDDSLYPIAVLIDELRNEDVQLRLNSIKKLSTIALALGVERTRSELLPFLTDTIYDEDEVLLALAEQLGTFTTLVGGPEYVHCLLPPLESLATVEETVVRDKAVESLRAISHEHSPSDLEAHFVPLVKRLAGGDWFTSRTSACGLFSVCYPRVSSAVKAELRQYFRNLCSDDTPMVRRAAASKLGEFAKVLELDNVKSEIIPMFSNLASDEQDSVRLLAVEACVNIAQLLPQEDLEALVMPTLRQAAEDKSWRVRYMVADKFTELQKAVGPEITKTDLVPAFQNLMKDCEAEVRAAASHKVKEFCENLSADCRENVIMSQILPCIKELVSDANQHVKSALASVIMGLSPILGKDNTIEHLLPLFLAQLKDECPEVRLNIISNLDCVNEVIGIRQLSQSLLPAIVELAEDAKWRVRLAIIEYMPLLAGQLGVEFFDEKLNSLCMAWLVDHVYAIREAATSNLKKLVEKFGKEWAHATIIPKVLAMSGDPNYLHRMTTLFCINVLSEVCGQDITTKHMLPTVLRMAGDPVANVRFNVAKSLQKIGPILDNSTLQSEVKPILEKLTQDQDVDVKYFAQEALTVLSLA", "experiment": "PP2A immunoprecipitation from treated PC3 cells and phosphatase assay", "type": "cell-based", "conditions": "PC3 cells treated 1 hour; sodium selenate 500 μM, endothall A 100 μM", "procedure": "Free phosphate was removed by passing cell lysates through desalting columns, and measured phosphatase activity using a phosphor-serine peptide and malachite green.\n1×10^6 PC3 cells were plated in 60 mm plates and allowed attach for 8 h, then serum starved over night. Following various treatments as indicated, the media was aspirated and cells washed once with TBS. Cells were lysed in 0.3 ml of lysis buffer (20 mM Tris-HCl, pH 7.0, 1% Igepal-CA, 2 mM EDTA, 2 mM EGTA, 1× Complete Protease Inhibitor Cocktail) and phosphates removed by passing the lysate through a 2 ml Zeba Desalt Spin Column (Pierce #89890). Protein concentration of the desalted lysate was determined by the BCA assay as previously described. 100-150 μg of total protein was immunoprecipitated with 4 μg of anti-PP2A monoclonal antibody and 30 μl of Protein A-sepharose slurry at 4° C. for 2 h. Samples were then pelleted at 14,000 rpm for 1 min, washed three times in excess TBS and once with pNPP assay buffer. After the final spin all of the supernatant was carefully removed and 500 μM of phosphor-threonine peptide in a final volume of 80 μl added to the beads. Samples were incubated at 30° C. for 10 min with agitation, and the reaction terminated by the addition of malachite green solution. Absorbance was read at 590 nm for each sample in duplicate."}, "[2]": {"target": "phosphatase activity associated with immunoprecipitated Akt protein (PP2A) (Homo sapiens, UniProt P67775)", "sequence (P67775 whole entry)": "as the sequence (P67775 whole entry) above", "sequence (P30153 2-589, further chain)": "as the sequence (P30153 2-589 partner limits assumed) above", "conditions": "PC3 cells, 500 μM, 1 h", "procedure": "2×10^6 PC3 cells were plated in 10 cm plates, allowed to attach for 8 hours, and then serum starved over night. […] 500-600 μg of total protein was then immunoprecipitated with anti-Akt (1:100) monoclonal antibody and 30 μl of Protein A slurry, and after washing, checked for free phosphate contamination by incubation of 25 μl of final wash buffer with Malachite Green. Immunoprecipitates were assayed for phosphatase activity by incubation with 500 μM synthetic phospho-threonine peptide for 10 min at 30° C. with agitation. Free phosphate was detected by the addition of malachite green solution, and absorbance was read at 590 nm, for each sample in duplicate."}, "[3]": {"target": "T2, PP2A catalytic subunit complexed with Akt (Homo sapiens, UniProt P67775)", "T2 construct": "Total Akt was immunoprecipitated from 400 μg of each whole cell lysate using a monoclonal anti-Akt antibody; endogenous in cells; host or cells: PC3 prostate carcinoma cells", "T2 sequence (P67775 whole entry)": "as the sequence (P67775 whole entry) above", "T2 sequence (P30153 2-589 partner limits assumed)": "as the sequence (P30153 2-589 partner limits assumed) above", "experiment": "Co-immunoprecipitation of PP2A catalytic subunit with Akt from PC3 cells", "type": "cell-based", "conditions": "500 μM, 1.5 h, densitometry", "procedure": "1×10^6 PC3 prostate carcinoma cells were plated onto 6 cm dishes, allowed attach for 8 h, and then serum starved overnight. […] Total Akt was immunoprecipitated from 400 μg of each whole cell lysate using a monoclonal anti-Akt antibody, and captured with protein A-sepharose beads. […] Following washing to reduce non-specific binding, the beads were boiled for 5 min in 3× SDS protein loading buffer, centrifuged at high speed and the supernatant resolved by SDS-PAGE. The level of PP2A binding was determined by immunoblot analysis with an antibody that specifically recognizes the catalytic subunit of the phosphatase, and comparison made with the amount of Akt pulled down and the concentration of precipitating antibody (IgG). […] To quantify this increase in complex formation, representative immunoblots from three independent experiments were digitalized, subjected to densitometric analysis, and normalized to the control for each experiment. The mean ratio of PP2A catalytic subunit to total immunoprecipitated Akt protein ±SEM was then determined.\n100-600 μg of whole cell lysate was incubated with various antibodies at a 1:100 dilution in microfuge tubes on a rotating wheel for 1-2 h at RT or 16 h at 4° C. as indicated. Following brief centrifugation, 30-40 μl of pre-washed 50% Protein-A Sepharose Fast Flow beads (Sigma #9424) was added to each tube and rotated at 4° C. for 1 h at RT or 4° C. […]"}, "Akt": {"system": "Akt", "experiment": "Akt phosphorylation by immunoblot in PC3 prostate carcinoma cells", "type": "cell-based, human", "conditions": "for Akt phosphorylation at Ser473: PC3 cells, 500 μM of each compound, various timepoints", "protocol": "Such dephosphorylation may be the result of a direct inhibitory effect on the Akt protein itself, or alternatively, can be similarly achieved indirectly by boosting a negative regulator or inhibiting a positive regulator of Akt phosphorylation. […] PC3 prostate carcinoma cells were plated in 100 mm dishes, and when 70-80% confluent serum starved overnight. […] Cells were lysed, and the level of Akt Ser473 phosphorylation determined by immunoblot analysis with an activation specific antibody, and comparison made to levels of Akt protein expressed. To determine the effect on purified Akt, similarly plated but untreated PC3 cells were lysed in RIPA (minus phosphatase inhibitors), a stringent cell lysis buffer that minimizes maintenance of protein-protein complexes. […] The immunoprecipitated protein was then resolved and the level of activated Akt determined by immunoblot analysis as described above.\nA reduction in net Akt activity could be achieved indirectly by either preventing the initial Akt phosphorylation, or alternatively, increasing Akt dephosphorylation [Kohn et. al. 1996]. […] Initially okadaic acid, a polyether toxin from red-tide algae (and causative agent of diarrhoetic shellfish poisoning) which inhibits the phospho-protein phosphatases PP1 and PP2A, two phosphatases implicated in the regulation of Akt dephosphorylation was used [Fernandez et al., 2002]. 5×10^5 PC3 prostate carcinoma cells were plated per well of a 6 well plate, allowed attach for 8 h, and then serum starved overnight. […] Lysed cells were resolved by SDS-PAGE, then probed for Akt phosphorylation at the Ser473 residue by immunoblot analysis with an antibody that specifically recognizes Akt when phosphorylated at this site, and comparison made with the total levels of Akt protein expressed (FIG. 2A).\nThis panel included tautamycin 500 nM (PP1), okadaic acid 500 nM (low dose PP2A>PP1), endothall A (PP2A) 100 μM, calyculin A 2 nM (low dose PP1>PP2A), calyculin A 10 nM (high dose inhibits PP1 and PP2A) and cyclosporine A 400 ng/ml (PP2B). […] Again, lysed cells were resolved by SDS-PAGE, then membranes probed for Akt phosphorylation at the Ser^473 residue by immunoblot analysis with an antibody that specifically recognizes Akt when phosphorylated at this site, and comparison made with the total levels of Akt protein expressed.\n5×10^5 PC3 prostate carcinoma cells were plated per well in a 6-well plate, allowed to attach for 8 h, and then serum starved overnight. […] Equal amounts of whole cell lysates were resolved, and then subjected to immunoblot analysis to determine the level of phosphorylated Akt Ser^473. Comparison was then made with the total level of Akt protein expressed.\nThe phosphorylation status of Akt in whole cell lysates was determined using activation specific antibodies.\nOther inorganic (sodium selenite, selenium dioxide, selenium sulphide and selenious acid) and organic (methylselenocysteine, selenocystine) selenium species were tested for their ability to affect Akt activation. All forms were dissolved in water with the exception of selenium sulphide which was solubilised in DMSO, and added to serum starved PC3 cells at a concentration of 500 μM for 1 hour, Whole cell lysates were then resolved, and the activation status of Akt determined by immunoblotting with an antibody that specifically recognizes Akt when phosphorylated at the Ser473 site, as well as the total level of Akt expression (pan Akt). To quantify the degree of Akt activation, immunoblots were digitalised, and the ratio of phosphorylated Akt to total Akt determined by densitometry."}, "[4]": {"conditions": "serum free PC3 cells, 500 μM, various times"}}, "note": "“Also recorded” adds a separate entry of the source.", "data": [{"smiles": "O=[Se](=O)(O)O", "note": "[sodium selenate]", "values": [{"measurement": "PHF Tau signal in brain lysate, clone AT100 (60 kDa)", "setting": "PHF Tau", "value": "PHF Tau signal appeared to be reduced"}, {"measurement": "PHF Tau signal in brain lysate, clone AT180 (60 kDa)", "setting": "PHF Tau", "value": "PHF Tau signal clearly reduced"}, {"measurement": "basal proportion of fluorescent cells (ROS)", "setting": "[1]", "value": "had no effect on the basal proportion of fluorescent cells"}, {"measurement": "phosphatase activity of immunoprecipitated PP2A (general intracellular pool)", "setting": "PP2A", "value": "had no effect"}, {"measurement": "phosphatase activity associated with immunoprecipitated Akt protein", "setting": "[2]", "value": "more than doubled"}, {"measurement": "increase in the binding of PP2A catalytic subunit to Akt protein", "setting": "[3]", "value": "approximately 50%"}, {"measurement": "Akt phosphorylation at Ser473", "setting": "Akt", "value": "profoundly inhibited Akt phosphorylation"}, {"measurement": "Akt phosphorylation at Ser473", "setting": "Akt; listed as selenate", "value": "inhibited Akt phosphorylation"}, {"measurement": "Akt Ser473 phosphorylation", "setting": "Akt; intact serum starved PC3 cells, sodium selenate 500 μM, 1 h", "value": "profound reduction in Akt phosphorylation; also recorded: markedly reduces the chronically high levels of Akt phosphorylation; also recorded: marked decrease in the phosphorylation of Akt; also recorded: markedly reduced the level of Akt phosphorylation"}, {"measurement": "phosphorylation of Akt at Ser473 and Thre308, after the initial boost", "setting": "Akt; [4]", "value": "marked and prolonged deactivation"}, {"measurement": "total cellular Akt levels (pan Akt)", "setting": "Akt; [4]", "value": "remained essentially unchanged"}, {"measurement": "phosphorylation of Akt at Ser473 and Thre308, early", "setting": "Akt; serum free PC3 cells, 500 μM, within 10 minutes of exposure", "value": "transient boost in phosphorylation of Akt"}, {"measurement": "Akt activation: ratio of phosphorylated Akt to total Akt versus control", "setting": "Akt; serum starved PC3 cells, 500 μM, 1 hour, densitometry", "value": "inhibits activation of Akt"}, {"measurement": "reduction in Akt phosphorylation at Ser473 compared to untreated cells", "setting": "Akt; serum starved PC3 cells, 500 μM, 1 hour, densitometry, p<0.05", "value": "greater than 80%"}]}]}
